{"source": "patent US6773702B2", "about": "“Use of combretastatin A4 and its prodrugs as an immune enhancing therapy” (OXiGENE, Inc., priority 2000, dated 2004)", "key": {"[1]": {"test_system": "spleen cells isolated from BN7005-H1D2 tumor-bearing rats", "assay": "In vitro proliferation of spleen cells from vaccinated tumor-bearing rats treated in vivo with CA4P (FIG. 1)", "parameters": "species or system rat", "details": "CA4P 2 mg/kg 5 days a week + vaccination"}, "[2]": {"details": "cited from earlier work"}, "[3]": {"test_system": "BN7005-H1D2 colon cancer cells", "assay": "Tumor growth with IL-18/IFN-γ vaccination plus CA4P and/or L-NAME (FIG. 6)", "format": "in vivo, rat", "protocol": "FIG. 6 illustrates enhancement of the therapeutic effect of vaccination with IL-18/IFN-γ producing tumor transfectant […] cells by concurrent treatment with low dose combretastatin-A4 prodrug and/or L-NAME. Mean tumor volume±SEM is indicated. Significance of differences compared to the PBS control was evaluated by the Student's t test.\nFour groups of 6 rats each were inoculated intrahepatically with 1×10^5 wild type colon cancer cells (BN7005-H1D2) on day 0. Drug treatment was initiated on day 7, when the tumor was macroscopically visible as a small nodule, and was repeated 5 days a week. CA4-P was administered i.p. at a dose of 5 mg/kg and L-NAME by gavage at a dose of 48 mg/rat. Vaccination was given twice i.p. on day 10.and 17 with 2×10^6 tumor cells producing IL-18 and IFN-γ, respectively. No drug treatment was given on the day of vaccination and the day after. On day 28 all animals were laparotomized and tumor diameters measured (the longest diameter (a) and the one perpendicular to the first (b) and tumor volume calculated according to the formula 0.4×a×b×b.\nReferring to FIG. 6, wild-type (BN7005-H1D2) colon cancer cells were inoculated intrahepatically and combretastatin A4 prodrug treatment began daily on day 7 when the tumors were macroscopically visible. L-NAME, a well known NO inhibitor and effective antitumor agent, was also administered daily. On day 10 and 17 vaccination occurred using BN7005-H1D2 cells transfected with IL-18/IFN-gamma. […] One likely explanation was that both L-NAME and Combretastatin A4 were doing the same thing; i.e. inhibiting the production of proinflammatory cytokines that cause immune suppression."}, "[4]": {"assay": "Half-life and estimated in vivo concentration of CA4P", "protocol": "The purified adherent cells (6×10^5/microtiter well) were treated in vitro for 3 hours with 0.15 ug/ml CA4P before washing. […] These variables were used to choose an in vitro concentration that is equal to the average concentration in vivo after a 3 hour period. For example, after treatment with 2 mg/kg in vivo, the concentration would be a maximum of 0.18 ug/ml 1.5 hours later, and less than 1 ng/ml after 3 hours."}, "[5]": {"test_system": "BN7005-H1D2 colon cancer cells", "assay": "Comparison of CA4 and CA4P on BN7005-H1D2 tumor growth, alone or with vaccination (FIG. 5)", "format": "in vivo, rat", "protocol": "FIGS. 5A AND 5B illustrate a comparison of the therapeutic effect of Combretastatin A4 and Combretastatin A4 Prodrug (2 mg/kg) on tumor growth (BN7005-H1D2) in vivo as a sole therapy or in combination with therapeutic vaccination (IL-18 tumor transfectants). Results are represented as mean tumor volume (FIG. 5A) or as median tumor volume (FIG. 5B) 31 days after tumor initiation.\nA comparison was also made of relative effect of CA4 and CA4P administration in vivo with regard to tumor inhibitory effects when used as sole therapy and when combined with immunomodulatory gene therapy. […] A subset of these animals were subjected to regular vaccinations autologous IL-18 and IL-12-transfected tumor cells, respectively.\nA comparison has been made of the effect of CA4 and CA4 prodrug with regard to tumor inhibitory effects when used as sole therapy and when combined with immunomodulatory gene therapy. As represented in FIG. 5, wild-type (BN7005-H1D2) colon cancer cells were inoculated intrahepatically and treatment with CA4 and CA4P began on day 7 (2 mg/kg 6 days a week), when the tumors were macroscopically visible. On day 9, 16 and 23, vaccinations occurred using BN7005-H1D2 cells transfected with ILI8 and IL-12, respectively."}, "[6]": {"details": "cited from earlier work", "remark": "listed apart in the source"}, "[7]": {"test_system": "colon carcinoma H1D2-WT cells", "assay": "Intrahepatic growth of colon carcinoma H1D2-WT, tumor volume after 4 weeks (Table 2)", "format": "in vivo, rat", "protocol": "Table 2 is a summary of intrahepatic growth of colon carcinoma H1D2-WT cells treated with low dose CA4P alone or in combination with immunomodulatory gene therapy, and with or without additional inhibitor. Tumor growth was initiated by inoculation beneath the liver capsule with 1×10^5 in vitro cultured BN7005-H1D2 wild type cells suspended in 50 μl RPMI medium. Drug administration (CA4P, L-NAME, Indomethacin) was initiated after 7-8 days when the tumor was macroscopically visible. CA4P was given intraperitoneally, 5 days a week. L-NAME was given by gavage twice a week on the day of immunization and the day after. Indomethacin was given by gavage 48 h after vaccination at a dose of 0.33 mg/kg. Immunization was performed by intraperitoneal administration on day 10 and day 17 using BN7005-H1D2 cells transfected with IL-18 or a mixture of IL-18 and IL-12 transfectants (2-3×10^6 viable cells per rat).\nWild-type (BN7005-H1D2) colon cancer cells (1×10^5 cells) were inoculated intrahepatically and CA4P drug treatment (2 and 5 mg/kg) began daily when the tumors were macroscopically visible. On day 10 and 17, vaccinations were administered intraperitoneally using […] cells transfected with IL-18 transfected cells or mixtures of IL-18 and IL-12 transfected cells (2-3×10^6 viable cells per rat). L-NAME and Indomethacin were also administered by gavage 48 h after vaccination at a dose of 0.33 mg/kg."}, "[8]": {"details": "CA4-P 2 mg/kg alone, no L-NAME, no immunization"}, "[9]": {"details": "CA4-P 2 mg/kg i.p. 5 days a week, no L-NAME, with immunization, phosphate disodium salt"}, "[10]": {"details": "CA4-P 2 mg/kg, with L-NAME gavage, with immunization"}, "[11]": {"details": "CA4-P 5 mg/kg, with L-NAME gavage, with immunization, phosphate disodium salt"}}, "note": "Several values for one entry are separate records, joined by “and”; a condition that tells them apart may be missing. Equal values may be shown once."}
{"smiles": "COc1ccc(/C=C\\c2cc(OC)c(OC)c(OC)c2)cc1OP(=O)([O-])[O-].[Na+].[Na+]", "note": "[CA4P, CA4 phosphate disodium salt]", "values": [{"measurement": "Rats responding to SEA", "setting": "[1]; spleen cells challenged with SEA, 5 of 8 (untreated 13%)", "result": 63, "unit": "%"}, {"measurement": "Samples responding to tumor antigen challenge", "setting": "[1]; spleen cells stimulated with autologous tumor cells, 7 of 18 (immunization alone 8%)", "result": 39, "unit": "%"}, {"measurement": "Half-life in vivo", "setting": "[2]", "result": "less than 15 min"}, {"measurement": "Enhancement by combining L-NAME with combretastatin A4 prodrug", "setting": "[3]; CA4-P 5 mg/kg + L-NAME 48 mg/rat + vaccination", "result": "only a small enhancement"}, {"measurement": "Tumor growth compared to the PBS group", "setting": "[3]; CA4P 5 mg/kg i.p. + vaccination with IL-18/IFN-γ producing tumor cells, day 28", "result": "inhibited the tumor growth significantly"}, {"measurement": "Concentration in extracellular fluid", "setting": "[4]; 1.5 hours after treatment with 2 mg/kg in vivo, calculated from half-life and extracellular fluid 16.6% of body weight", "result": "≤ 180", "unit": "ng/mL"}, {"measurement": "Concentration in extracellular fluid", "setting": "[4]; 3 hours after treatment with 2 mg/kg in vivo, calculated", "result": "less than 1 ng/ml"}, {"measurement": "Tumor inhibitory effect", "setting": "[5]; 2 mg/kg 6 days a week as sole therapy", "result": "no significant effect as sole therapy"}, {"measurement": "Tumor inhibitory effect", "setting": "[5]; 2 mg/kg combined with vaccination (IL-18 and IL-12 transfected tumor cells)", "result": "significant tumor inhibitory effects"}, {"measurement": "Solubility in water", "setting": "[6]", "result": "readily soluble in water"}, {"measurement": "Tumor volume after 4 weeks, Mean", "setting": "[7]; [8]", "result": 3834, "unit": "mm^3"}, {"measurement": "Tumor volume after 4 weeks, Median", "setting": "[7]; [8]", "result": 4037, "unit": "mm^3"}, {"measurement": "Tumor volume after 4 weeks, Mean", "setting": "[7]; [9]", "result": "3918 mm^3 and 5755 mm^3 and 5135 mm^3 and 3698 mm^3"}, {"measurement": "Tumor volume after 4 weeks, Median", "setting": "[7]; [9]", "result": "3780 mm^3 and 6195 mm^3 and 4275 mm^3 and 3393 mm^3"}, {"measurement": "Tumor volume after 4 weeks, Median", "setting": "[7]; CA4-P 2 mg/kg, with L-NAME (+Indomethacin 0.33 mg/kg), with immunization, phosphate disodium salt", "result": "2867 mm^3 and 1463 mm^3 and 1962 mm^3"}, {"measurement": "Tumor volume after 4 weeks, Mean", "setting": "[7]; [10]", "result": 5064, "unit": "mm^3"}, {"measurement": "Tumor volume after 4 weeks, Median", "setting": "[7]; [10]", "result": 4792, "unit": "mm^3"}, {"measurement": "Tumor volume after 4 weeks, Mean", "setting": "[7]; [11]", "result": "512 mm^3 and 561 mm^3"}, {"measurement": "Tumor volume after 4 weeks, Median", "setting": "[7]; [11]", "result": "426 mm^3 and 367 mm^3"}]}
